Measured values from ChEMBL document CHEMBL5352428, “Covalent inhibitors of bacterial peptidoglycan biosynthesis enzyme MurA with chloroacetamide warhead” (Eur J Med Chem, 2022).
Calls of active or inactive are those of the source. The calls are words filed in the database; no cut-off is given here.

Legend:
[1] = target: UDP-N-acetylglucosamine 1-carboxyvinyltransferase (Escherichia coli K-12) (UniProt P0A749); assay: (§1) Inhibition of recombinant Escherichia coli MurA expressed in Escherichia coli NiCo21 assessed as residual activity using UNAG and PEP as substrate at 500 uM preincubated for 30 mins in presence of UNAG followed by PEP substrate addition and measured after 15 mins by malachite green based colorimetric assay; settings: time 45.0 min
[2] = Thiol reactivity of compound at pH 7.4 buffer at 100 uM and measured for 4 hrs every 5 mins in presence of DTNB and TCEP by microplate reader analysis; assay type: physicochemical; settings: pH 7.4, 4 h
Staphylococcus aureus = assay: Antibacterial activity against Staphylococcus aureus ATCC 29213 assessed as bacterial growth inhibition at <= 128 ug/ml incubated for 24 hrs by broth dilution method; assay type: functional, organism-based; settings: dose <= 128.0 µg/ml
Escherichia coli = assay: Antibacterial activity against Escherichia coli ATCC 25922 assessed as bacterial growth inhibition at <=128 ug/ml incubated for 24 hrs by broth dilution method; assay type: functional, organism-based; settings: dose <= 128.0 µg/ml
[3] = Thiol reactivity of compound at pH 7.4 buffer assessed as fold decrease by measuring second order rate constant at 100 uM and measured for 4 hrs every 5 mins in presence of DTNB and TCEP by microplate reader analysis relative to Iodoacetamide; assay type: physicochemical; settings: pH 7.4, 4 h
[4] = target: UDP-N-acetylglucosamine 1-carboxyvinyltransferase (Escherichia coli K-12, UniProt P0A749); assay: Inhibition of recombinant Escherichia coli MurA expressed in Escherichia coli NiCo21 using UNAG and PEP as substrate preincubated for 30 mins in presence of UNAG followed by PEP substrate addition and measured after 15 mins by malachite green based colorimetric assay
[5] = target: UDP-N-acetylglucosamine 1-carboxyvinyltransferase (Escherichia coli K-12) (UniProt P0A749); assay: Irreversible inhibition of recombinant Escherichia coli MurA expressed in Escherichia coli NiCo21 using UNAG and PEP as substrate assessed as second-order rate constant for enzyme inactivation, ratio of Kinact/Ki preincubated for 30 mins in presence of UNAG followed by 100 fold dilution and PEP substrate addition and measured after 15 mins by malachite green based colorimetric assay; settings: time 45.0 min
[6] = target: UDP-N-acetylglucosamine 1-carboxyvinyltransferase (Escherichia coli K-12) (UniProt P0A749); assay: as §1, with “Irreversible inhibition” for “Inhibition”, “1 mM” for “500 uM”; settings: time 45.0 min

Sequence of UDP-N-acetylglucosamine 1-carboxyvinyltransferase (P0A749 whole entry): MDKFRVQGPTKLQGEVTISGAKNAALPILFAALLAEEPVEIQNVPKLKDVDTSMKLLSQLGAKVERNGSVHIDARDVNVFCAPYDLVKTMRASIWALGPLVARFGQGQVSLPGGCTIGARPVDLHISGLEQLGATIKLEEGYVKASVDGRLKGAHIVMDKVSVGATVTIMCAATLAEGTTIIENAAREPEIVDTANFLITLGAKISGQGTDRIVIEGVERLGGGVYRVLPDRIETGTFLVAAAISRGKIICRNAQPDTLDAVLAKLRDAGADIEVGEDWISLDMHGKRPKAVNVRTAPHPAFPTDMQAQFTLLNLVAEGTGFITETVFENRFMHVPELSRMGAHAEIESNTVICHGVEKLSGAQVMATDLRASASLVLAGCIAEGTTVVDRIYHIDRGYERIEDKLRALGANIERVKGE
Sequence of UDP-N-acetylglucosamine 1-carboxyvinyltransferase (Escherichia coli K-12) (P0A749 whole entry): as above

SMILES | Activity [1] [%] | Drug metabolism [2] | Activity (Staphylococcus aureus) | Activity (Escherichia coli) | fold change (FC) [3] | IC50 [4] [µM] | Ratio [5] | Activity [6] [%]
O=C(CCl)N1CCC(COP(=O)(O)O)C1 (stereo not drawn) | 47 | Metabolite_Detected | inactive | inactive |  |  |  | 
O=C(CCl)NC1CCCCC1 | 74 | Metabolite_Notdetected | inactive | inactive |  |  |  | 
CC(C)CNC(=O)CCl | 90 | Metabolite_Notdetected | inactive | inactive |  |  |  | 
O=C(CCl)Nc1nccs1 | 55 | Metabolite_Detected | inactive | inactive | 4 |  |  | 
O=C(CCl)N1CCN(c2ccccc2)CC1 | 90 |  | inactive | inactive |  |  |  | 
O=C(CCl)N1CCc2ccccc2C1 | 70 | Metabolite_Detected | inactive | inactive |  |  |  | 
O=C(CCl)N1CCC(COP(=O)(Oc2ccccc2)Oc2ccccc2)C1 (stereo not drawn) |  | Metabolite_Detected | inactive | inactive |  | 311 |  | 
O=C(CCl)N1CCOCC1 | 87 | Metabolite_Detected | inactive | inactive |  |  |  | 
CC(C)(C)OC(=O)NC1CCN(C(=O)CCl)CC1 | 61 | Metabolite_Detected | inactive | inactive |  |  |  | 
O=C(O)C1CCN(C(=O)CCl)CC1 | 95 | Metabolite_Detected | inactive | inactive |  |  |  | 
Cc1cc(NC(=O)CCl)on1 | 71 | Metabolite_Detected | inactive | inactive |  |  |  | 
Cc1ccc(S(=O)(=O)NC(=O)CC2CCN(C(=O)CCl)CC2)cc1 |  | Metabolite_Detected | inactive | inactive |  | 137 | 2.79 10^-4/µM/min | 
O=C(CCl)Nc1ccc(-c2nnn[nH]2)cc1 | 100 | Metabolite_Detected | inactive | inactive |  |  |  | 
CCOC(=O)C1CCN(C(=O)CCl)CC1 | 100 | Metabolite_Detected | inactive | inactive |  |  |  | 
O=C(CCl)NC1CCCC(OP(=O)(Oc2ccccc2)Oc2ccccc2)C1 (stereo not drawn) | 89 | Metabolite_Detected | inactive | inactive |  |  |  | 
CC(=O)NC1CCCC2CCCCC21 (stereo not drawn) |  |  |  |  |  |  |  | 96.1
O=C(CCl)Nc1ccc2nsnc2c1 |  | Metabolite_Detected | inactive | inactive |  | 287 | 4.84 10^-4/µM/min | 
CS(=O)(=O)NC1CCN(C(=O)CCl)CC1 |  | Metabolite_Detected | inactive | inactive |  | 240 | 4.16 10^-4/µM/min | 
O=C(CCl)Nc1cccc2ccccc12 | 81 | Metabolite_Detected | inactive | inactive |  |  |  | 
NC1CCN(C(=O)CCl)CC1 | 82 | Metabolite_Detected | inactive | inactive |  |  |  | 
O=C(CCl)N1CCC(N2CCC(Br)C2=O)C1 (stereo not drawn) |  | Metabolite_Detected | inactive | inactive | 2 | 263 | 2.99 10^-4/µM/min | 
CCOC(=O)N1CCN(C(=O)CCl)CC1 | 95 | Metabolite_Detected | inactive | inactive |  |  |  | 
O=C(CCl)N1CCC(c2ccccc2)CC1 | 71 | Metabolite_Detected | inactive | inactive |  |  |  | 

SMILES | Activity [1] [%] | Drug metabolism [2] | Activity (Staphylococcus aureus) | Activity (Escherichia coli) | fold change (FC) [3] | IC50 [4] [µM] | Ratio [5] | Activity [6] [%]
O=C(CCl)N1CCCC(OP(=O)(Oc2ccccc2)Oc2ccccc2)C1 (stereo not drawn) |  | Metabolite_Detected | inactive | inactive |  | 543 |  | 
O=C(CCl)N1CCN(Cc2ccc3c(c2)OCO3)CC1 | 99 | Metabolite_Detected | inactive | inactive |  |  |  | 
O=C(CCl)N1CCCc2ccccc21 | 73 | Metabolite_Detected | inactive | inactive |  |  |  | 
O=C(O)C1CCCN(C(=O)CCl)C1 (stereo not drawn) | 75 | Metabolite_Detected | inactive | inactive |  |  |  | 
N#Cc1ccc(NC(=O)CCl)cc1 | 89 | Metabolite_Detected | inactive | inactive |  |  |  | 
CC1CCCN(C(=O)CCl)C1 (stereo not drawn) | 80 | Metabolite_Detected | inactive | inactive |  |  |  | 
COc1ccc2nc(SC3CCN(C(=O)CCl)CC3)[nH]c2n1 |  | Metabolite_Detected | inactive | inactive |  | 172 |  | 
COc1ccc(N2CCN(C(=O)CCl)CC2)cc1 | 77 | Metabolite_Detected | inactive | inactive |  |  |  | 
O=C(CCl)Nc1ccc(C(F)(F)F)cc1 | 77 | Metabolite_Detected | inactive | inactive |  |  |  | 
O=C(CCl)N1CCCCC1 | 79 | Metabolite_Detected | inactive | inactive |  |  |  | 
O=C(CCl)N1CCC(Sc2nccs2)CC1 |  | Metabolite_Detected | inactive | inactive |  | 195 | 7.13 10^-3/µM/min | 
O=C(CCl)Nc1ccc2ccccc2c1 | 83 | Metabolite_Detected | inactive | inactive |  |  |  | 
CCCCOc1ccc(NC(=O)CCl)cc1 | 100 | Metabolite_Detected | inactive | inactive |  |  |  | 
O=C(CCl)N1CCN(CC(=O)N2CCCCC2)CC1 | 81 | Metabolite_Detected | inactive | inactive |  |  |  | 
COC(=O)c1ccc(NC(=O)CCl)o1 | 75 | Metabolite_Detected | inactive | inactive |  |  |  | 
O=C(CCl)NC1CCC2CCCCC2C1 (stereo not drawn) | 79 | Metabolite_Notdetected | inactive | inactive |  |  |  | 
CCOC(=O)C1CCCN(C(=O)CCl)C1 (stereo not drawn) | 100 | Metabolite_Detected | inactive | inactive |  |  |  | 
O=C(CCl)Nc1ccc(C2CCCCC2)cc1 | 54 | Metabolite_Detected | inactive | inactive | 167 |  |  | 
O=C(CCl)Nc1ccncc1 | 77 | Metabolite_Detected | inactive | inactive |  |  |  | 
O=C(CCl)Nc1ccc(-c2ncco2)cc1 | 71 | Metabolite_Detected | inactive | inactive |  |  |  | 
O=C(CCl)N1CCC(Sc2nnc(-c3ccccc3)o2)CC1 |  | Metabolite_Detected | inactive | inactive |  | 162 |  | 
COc1cc(NC(=O)CCl)cc(OC)c1OC | 92 | Metabolite_Detected | inactive | inactive |  |  |  | 
O=C(CCl)NC12CC3CC(CC(C3)C1)C2 | 77 | Metabolite_Notdetected | inactive | inactive |  |  |  | 
